Measurements taken from ChEMBL document CHEMBL1129998, “Pharmacological options in the treatment of benign prostatic hyperplasia” (J Med Chem, 1997).

Legend:
[1] = target: T1, Steroid 5-alpha-reductase (Rattus norvegicus, UniProt P24008+P31214); test: Apparent binding affinity on rat 5-alpha reductase isozyme; assay type: protein assay
T1 sequence (P24008 whole entry): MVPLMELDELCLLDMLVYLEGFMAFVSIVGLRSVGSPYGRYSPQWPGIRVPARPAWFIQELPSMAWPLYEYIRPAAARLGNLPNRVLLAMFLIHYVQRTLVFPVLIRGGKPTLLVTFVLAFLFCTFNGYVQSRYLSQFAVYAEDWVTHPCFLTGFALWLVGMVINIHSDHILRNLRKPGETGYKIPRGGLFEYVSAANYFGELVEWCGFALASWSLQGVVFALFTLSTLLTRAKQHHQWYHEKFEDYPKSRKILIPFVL
T1 sequence (P31214 whole entry): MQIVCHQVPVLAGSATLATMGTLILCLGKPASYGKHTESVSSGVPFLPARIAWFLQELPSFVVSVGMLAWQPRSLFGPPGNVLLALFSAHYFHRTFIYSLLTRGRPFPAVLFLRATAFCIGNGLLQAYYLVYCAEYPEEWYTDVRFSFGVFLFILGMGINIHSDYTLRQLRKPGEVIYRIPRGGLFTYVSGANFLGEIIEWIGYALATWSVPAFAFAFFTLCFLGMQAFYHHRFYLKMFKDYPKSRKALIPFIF

[2] = Apparent binding affinity on human 5-alpha reductase isozyme
[3] = target: T2, Alpha-1B adrenergic receptor (Rattus norvegicus, UniProt P15823); test: Binding affinity was tested on CEC-pretreated rat liver Alpha-1B adrenergic receptor
T2 sequence (P15823 whole entry): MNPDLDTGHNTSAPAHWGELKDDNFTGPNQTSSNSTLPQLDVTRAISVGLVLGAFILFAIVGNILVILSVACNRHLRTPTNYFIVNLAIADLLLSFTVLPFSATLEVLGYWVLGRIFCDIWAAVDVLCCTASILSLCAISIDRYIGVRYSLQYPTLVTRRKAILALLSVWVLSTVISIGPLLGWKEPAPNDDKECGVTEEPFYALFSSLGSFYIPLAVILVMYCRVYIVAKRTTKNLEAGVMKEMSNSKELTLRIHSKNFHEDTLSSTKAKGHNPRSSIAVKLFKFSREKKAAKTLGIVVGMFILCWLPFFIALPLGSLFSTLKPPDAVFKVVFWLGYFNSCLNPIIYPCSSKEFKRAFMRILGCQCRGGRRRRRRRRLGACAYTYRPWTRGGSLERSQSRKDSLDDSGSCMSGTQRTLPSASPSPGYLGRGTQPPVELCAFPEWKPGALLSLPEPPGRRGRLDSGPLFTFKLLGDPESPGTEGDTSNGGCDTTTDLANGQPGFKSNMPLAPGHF

[4] = In vivo dose (iv) for 50% inhibition of norepinephrine-mediated contraction of proximal urethra (ID50) with the dose (iv) for 25% reduction in systolic blood pressure (ED25) in anesthetized dogs; assay type: functional
[5] = target: T3, Alpha-1A adrenergic receptor (Rattus norvegicus, UniProt P43140); test: Binding affinity was tested on CEC-pretreated rat hippocampus Alpha-1A adrenergic receptor; assay type: tissue-based
T3 sequence (P43140 whole entry): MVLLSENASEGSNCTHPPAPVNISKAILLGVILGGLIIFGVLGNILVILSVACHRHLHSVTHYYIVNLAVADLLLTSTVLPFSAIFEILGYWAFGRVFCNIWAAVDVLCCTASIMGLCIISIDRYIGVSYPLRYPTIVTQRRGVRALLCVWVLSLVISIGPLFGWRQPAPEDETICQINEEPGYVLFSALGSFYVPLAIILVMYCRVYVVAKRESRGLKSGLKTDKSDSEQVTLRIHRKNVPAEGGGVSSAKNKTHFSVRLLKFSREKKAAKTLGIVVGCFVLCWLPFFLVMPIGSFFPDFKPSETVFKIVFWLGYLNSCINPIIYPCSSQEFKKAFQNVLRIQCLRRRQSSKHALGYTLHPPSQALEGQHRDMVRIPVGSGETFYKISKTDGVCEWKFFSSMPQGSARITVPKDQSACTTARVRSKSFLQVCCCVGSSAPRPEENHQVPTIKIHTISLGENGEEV

[6] = target: T4, Alpha-1A adrenergic receptor (Homo sapiens, UniProt P35348); test: Binding affinity was tested on human Alpha-1A adrenergic receptor
T4 sequence (P35348 whole entry): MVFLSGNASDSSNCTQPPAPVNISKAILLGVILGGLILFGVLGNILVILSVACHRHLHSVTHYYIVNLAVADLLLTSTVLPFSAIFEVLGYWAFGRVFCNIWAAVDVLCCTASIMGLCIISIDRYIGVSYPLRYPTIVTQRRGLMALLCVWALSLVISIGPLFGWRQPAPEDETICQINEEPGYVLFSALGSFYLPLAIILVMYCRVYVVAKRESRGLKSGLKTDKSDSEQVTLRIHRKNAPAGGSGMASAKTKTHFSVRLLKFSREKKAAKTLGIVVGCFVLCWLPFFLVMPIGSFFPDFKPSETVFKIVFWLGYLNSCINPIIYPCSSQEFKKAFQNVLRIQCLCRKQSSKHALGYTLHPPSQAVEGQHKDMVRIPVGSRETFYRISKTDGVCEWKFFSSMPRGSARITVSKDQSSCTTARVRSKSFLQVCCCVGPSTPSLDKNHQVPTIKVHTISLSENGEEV

[7] = target: T5, Adrenergic receptor alpha-1 (Homo sapiens, UniProt P35348+P25100+P35368); test: pA2 for Alpha-1 adrenergic receptor from human prostate.; assay type: tissue-based, Prostate gland
T5 sequence (P35348 whole entry): T4 sequence (P35348 whole entry)
T5 sequence (P25100 whole entry): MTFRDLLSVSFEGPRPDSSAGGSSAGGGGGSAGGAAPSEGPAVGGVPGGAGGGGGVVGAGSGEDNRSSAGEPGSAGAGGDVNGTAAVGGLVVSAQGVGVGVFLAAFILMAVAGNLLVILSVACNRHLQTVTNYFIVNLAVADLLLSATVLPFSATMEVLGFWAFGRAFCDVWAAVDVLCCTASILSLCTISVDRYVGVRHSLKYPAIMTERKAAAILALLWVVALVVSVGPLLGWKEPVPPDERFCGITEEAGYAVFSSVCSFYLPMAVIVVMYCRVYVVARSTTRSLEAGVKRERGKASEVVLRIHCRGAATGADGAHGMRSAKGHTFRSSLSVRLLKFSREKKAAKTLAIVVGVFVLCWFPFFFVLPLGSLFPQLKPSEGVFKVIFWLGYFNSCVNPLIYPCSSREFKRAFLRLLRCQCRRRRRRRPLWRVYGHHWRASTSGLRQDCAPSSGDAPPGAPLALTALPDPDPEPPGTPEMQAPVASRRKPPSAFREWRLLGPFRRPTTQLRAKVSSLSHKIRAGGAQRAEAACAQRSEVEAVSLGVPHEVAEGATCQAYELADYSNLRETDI
T5 sequence (P35368 whole entry): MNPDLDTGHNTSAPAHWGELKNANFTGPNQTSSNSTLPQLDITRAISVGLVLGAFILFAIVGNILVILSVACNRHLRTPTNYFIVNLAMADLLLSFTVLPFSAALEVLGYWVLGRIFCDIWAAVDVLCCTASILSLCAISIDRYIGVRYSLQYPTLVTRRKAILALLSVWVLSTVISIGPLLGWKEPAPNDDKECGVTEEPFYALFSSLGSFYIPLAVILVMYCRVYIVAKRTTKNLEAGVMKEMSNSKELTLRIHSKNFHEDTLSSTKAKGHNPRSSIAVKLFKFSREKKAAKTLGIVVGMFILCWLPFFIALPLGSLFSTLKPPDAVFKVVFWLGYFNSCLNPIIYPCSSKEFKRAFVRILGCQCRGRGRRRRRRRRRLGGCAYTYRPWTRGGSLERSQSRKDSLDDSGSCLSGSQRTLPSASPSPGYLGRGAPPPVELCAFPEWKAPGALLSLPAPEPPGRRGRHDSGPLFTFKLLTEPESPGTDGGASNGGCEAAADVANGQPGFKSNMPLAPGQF

[8] = target: T6, Alpha-1D adrenergic receptor (Homo sapiens, UniProt P25100); test: Binding affinity was tested on human Alpha-1D adrenergic receptor
T6 sequence (P25100 whole entry): T5 sequence (P25100 whole entry)

[9] = target: T7, Alpha-1B adrenergic receptor (Homo sapiens, UniProt P35368); test: Binding affinity was tested on human Alpha-1B adrenergic receptor
T7 sequence (P35368 whole entry): T5 sequence (P35368 whole entry)

[10] = tested on: Canis familiaris; test: 50% reduction in agonist induced pressor response in anesthetized dog; assay type: functional; details: Canis lupus familiaris; read-out: ID50 (the source's name)
[11] = tested on: Canis familiaris; test: 50% reduction in intraurethral pressure (IUP) in response to hypogastric nerve stimulation or agonist (phenylephrine or norepinephrine) administration in anesthetized dog; assay type: functional; details: Canis lupus familiaris; read-out: ID50 (the source's name)
[12] = Ratio of intraurethral pressure to that of pressor response in dog.; assay type: functional
[13] = Dose (iv) for 20% reduction of mean blood pressure in rat (ID20) with the dose for 50% inhibition of norepinephrine-mediated contraction of proximal urethra (ID50) in cat; assay type: functional
[14] = target: T8, 3-oxo-5-alpha-steroid 4-dehydrogenase 2 (Homo sapiens, UniProt P31213); test: Inhibitory concentration on human prostatic 5-alpha reductase 2 isozyme
T8 sequence (P31213 whole entry): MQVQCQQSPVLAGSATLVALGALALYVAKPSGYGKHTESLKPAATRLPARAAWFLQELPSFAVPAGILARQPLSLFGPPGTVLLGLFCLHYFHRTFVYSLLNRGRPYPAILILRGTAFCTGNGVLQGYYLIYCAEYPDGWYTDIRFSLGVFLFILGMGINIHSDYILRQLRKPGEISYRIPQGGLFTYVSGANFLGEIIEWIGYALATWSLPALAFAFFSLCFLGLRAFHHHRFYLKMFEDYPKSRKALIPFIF

[15] = Inhibitory concentration on human 5-alpha reductase isozyme
[16] = target: T1, Steroid 5-alpha-reductase; test: Inhibition of rat 5-alpha reductase isozyme.; assay type: protein assay

Structure (SMILES): CC(C)N(C(=O)[C@H]1CCC2C3CC=C4C=C(CO)CC[C@]4(C)C3CC[C@@]21C)C(C)C (some centres undefined)
- Ki [1]: 5300 nM
- Ki [2]: 4200 nM

Structure (SMILES): COc1ccccc1N1CCN(CCCCOc2cccc3c(=O)c(C)c(-c4ccccc4)oc23)CC1
- IC50 [3]: 39 nM
- Ratio [4]: 13
- IC50 [5]: 10 nM

Structure (SMILES): Cc1c[nH]c(=O)n(CCCN2CCN(c3ccc(F)cc3OCC(F)(F)F)CC2)c1=O
- Ki [6]: 1 nM
- pA2 [7]: 8.8
- Ki [8]: 100 nM
- Ki [9]: 79.4 nM
- ED50 [10]: 0.38 mg/kg
- ED50 [11]: 0.005 mg/kg
- Ratio [12]: 76

Structure (SMILES): CC(C)N(C(=O)[C@H]1CCC2C3CC=C4C=C(P(=O)(O)O)CC[C@]4(C)C3CC[C@@]21C)C(C)C (some centres undefined)
- Ki [1]: 200 nM
- Ki [2]: 25 nM

Structure (SMILES): COc1ccc(Cl)cc1N1CCN(CCCNc2nccc(C(N)=O)n2)CC1
- Ki [6]: 2.51 nM
- pA2 [7]: 8.6
- Ratio [13]: 46
- Ki [8]: 2.51 nM
- Ki [9]: 12.6 nM
- ED50 [10]: 0.021 mg/kg
- ED50 [11]: 0.005 mg/kg
- Ratio [12]: 5

Structure (SMILES): COc1ccccc1N1CCN(CCNC(=O)c2cccc3c(=O)c(C)c(-c4ccccc4)oc23)CC1
- IC50 [3]: 79 nM
- Ratio [4]: 14
- IC50 [5]: 14 nM

Structure (SMILES): Cc1c(-c2ccccc2)oc2c(C(=O)NCCCN3CCN(c4ccccc4OC(C)C)CC3)cccc2c1=O
- IC50 [3]: 108 nM
- IC50 [5]: 1 nM

Structure (SMILES): CN1C(=O)CC[C@]2(C)C3CC[C@@]4(C)C(CC[C@@H]4C(=O)N(C(=O)NC(C)(C)C)C(C)(C)C)C3CCC12 (some centres undefined)
- IC50 [14]: 212 nM

Structure (SMILES): CC(C)NC(=O)N(C(=O)[C@H]1CCC2C3CCC4N(C)C(=O)C=C[C@]4(C)C3CC[C@@]21C)C(C)C (some centres undefined)
- IC50 [14]: 1220 nM

Structure (SMILES): CN1C(=O)CC[C@]2(C)C3CC[C@@]4(C)C(CC[C@@H]4C(=O)N(C(=O)NC4CCCCC4)C4CCCCC4)C3CCC12 (some centres undefined)
- IC50 [14]: 41 nM

Structure (SMILES): COc1ccc(CCN2CCC(c3nc(COCC(F)(F)F)c(-c4ccc(F)cc4)o3)CC2)cc1S(N)(=O)=O
- Ki [6]: 0.2 nM
- Ki [8]: 25.1 nM
- Ki [9]: 15.8 nM
- ED50 [10]: 7.25 mg/kg
- ED50 [11]: 0.013 mg/kg
- Ratio [12]: 550

Structure (SMILES): COc1ccccc1N1CCN(CCCNc2nccc(C(N)=O)n2)CC1
- Ratio [13]: 31

Structure (SMILES): Cc1ccc(Cl)cc1N1CCN(CCCNC(=O)c2cccc3c(=O)c(C)c(-c4ccccc4)oc23)CC1
- IC50 [3]: 29 nM
- IC50 [5]: 1 nM

Structure (SMILES): CC(C)NC(=O)N(C(=O)[C@H]1CCC2C3CCC4NC(=O)CC[C@]4(C)C3CC[C@@]21C)C(C)C (some centres undefined)
- IC50 [14]: 381 nM

Structure (SMILES): NC(=O)c1ccnc(NCCCN2CCN(c3cccc(Cl)c3)CC2)n1
- Ratio [13]: 18

Structure (SMILES): CC(C)N(C(=O)[C@H]1CCC2C3CC=C4C=C([PH](=O)O)CC[C@]4(C)C3CC[C@@]21C)C(C)C (some centres undefined)
- Ki [1]: 160 nM
- Ki [2]: 7 nM

Structure (SMILES): NC(=O)c1ccnc(NCCCN2CCN(c3ccccc3C3CC3)CC2)n1
- Ratio [13]: 4

Structure (SMILES): CC(C)NC(=O)N(C(=O)[C@H]1CCC2C3CCC4NC(=O)C=C[C@]4(C)C3CC[C@@]21C)C(C)C (some centres undefined)
- IC50 [14]: 1550 nM

Structure (SMILES): COc1ccccc1N1CCN(CCCNC(=O)c2ccccc2OCc2ccccc2)CC1
- Ratio [4]: 16

Structure (SMILES): CC(C)N(C(=O)[C@H]1CC[C@H]2[C@@H]3CCC4C=C(C(=O)O)CC[C@]4(C)[C@H]3CC[C@]12C)C(C)C (some centres undefined)
- IC50 [15]: 30 nM
- IC50 [16]: 70 nM
- Ki [1]: 70 nM
- Ki [2]: 30 nM

Structure (SMILES): COc1ccccc1N1CCN(CCCNC(=O)c2cccc3c(=O)c(C)c(-c4ccccc4)oc23)CC1 [UPIDOSIN]
- IC50 [3]: 24 nM
- IC50 [5]: 2 nM
- ED50 [10]: 0.109 mg/kg
- ED50 [11]: 0.004 mg/kg
